According to patent publication US20040180104A1, “Herbal composition for preventing and/or treating conditions in associated with depression” (priority 2003, published 2004):

Test system: duration of immobility (despair) in rodents
Assay: Forced Swimming Test (FST)
Format: in vivo
Conditions: male BALB mice, imipramine
Protocol: Rodents are placed individually into an transparent acrylic cuboid containing 15 cm (for the mice) or 30 cm (for the rats) of water at 24+1° C. for 6 minutes. The durations of struggling, active movement and immobility in the test is recorded by an automatic device. A 15 minutes pre-test was performed 20-24 hours prior to the test. The duration of immobility is used as a parameter of despair in the rodents.
160-250 g of male Wistar rats were purchased from NSC (National Science Council, Taipei Taiwan). The animals were placed at constant ambient temperature (25±1° C.) with food and water available and on a 12:12-h LD cycle (lights on at 06:00, off at 18:00.)
The FST test as mentioned herein was performed.

For `CN(C)CCCN1c2ccccc2CCc2ccccc21` [Imipramine], the “duration of immobility (in words)” value was “reduction in the duration of immobility”.
